Type: physicochemical
Source text: Desferrioxamine B is a commercially available iron chelating drug, desferal®. […] (1980). […] 89, p.

In the case of `O=C(NCCCCN(CCCNC(=O)c1cc(S(=O)(=O)O)cc(O)c1O)C(=O)c1cc(S(=O)(=O)O)cc(O)c1O)c1cc(S(=O)(=O)O)cc(O)c1O` [3,4-LICAMS], the “selectivity: difference between the log stability constants” value is reported as 26.8.

With `O=C(O)CN(CCN(CC(=O)O)CC(=O)O)CCN(CC(=O)O)CC(=O)O` [DTPA, diethylenetriaminepentaacetic acid] the “selectivity: difference between the log stability constants” value was 17.2.

Reference: patent US7311933B2, “Packaging material for inhibiting microbial growth” (Eastman Kodak Company, priority 2004, dated 2007)
